From ChEMBL document CHEMBL5543175, “Discovery of Selective Proteolysis-Targeting Chimera Degraders Targeting PTP1B as Long-Term Hypoglycemic Agents” (J Med Chem, 2024)

Legend:
Format in all cases: cell-based
[1] = molecular target: T1, Protein cereblon/Tyrosine-protein phosphatase non-receptor type 1 (Homo sapiens, UniProt P18031+Q96SW2); assay: PROTAC activity at PTP1B/CRBN in insulin treated human HepG2 cells assessed as protein degradation at 5 nM incubated for 48 hrs by Western blot analysis relative to control
Target sequence in this assay (P18031 whole entry, looked up): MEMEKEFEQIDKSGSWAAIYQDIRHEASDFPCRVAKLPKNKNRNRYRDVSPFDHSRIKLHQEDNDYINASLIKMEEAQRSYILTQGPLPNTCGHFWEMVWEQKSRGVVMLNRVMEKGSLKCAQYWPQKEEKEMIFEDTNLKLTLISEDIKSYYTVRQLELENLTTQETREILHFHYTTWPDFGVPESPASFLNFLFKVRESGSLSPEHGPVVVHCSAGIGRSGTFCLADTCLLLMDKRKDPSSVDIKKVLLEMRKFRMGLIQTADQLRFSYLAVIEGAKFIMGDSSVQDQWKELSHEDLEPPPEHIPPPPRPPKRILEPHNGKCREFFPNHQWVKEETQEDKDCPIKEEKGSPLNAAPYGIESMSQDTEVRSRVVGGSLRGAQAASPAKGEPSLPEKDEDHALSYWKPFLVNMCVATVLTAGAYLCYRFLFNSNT
Target sequence in this assay (Q96SW2 whole entry, looked up): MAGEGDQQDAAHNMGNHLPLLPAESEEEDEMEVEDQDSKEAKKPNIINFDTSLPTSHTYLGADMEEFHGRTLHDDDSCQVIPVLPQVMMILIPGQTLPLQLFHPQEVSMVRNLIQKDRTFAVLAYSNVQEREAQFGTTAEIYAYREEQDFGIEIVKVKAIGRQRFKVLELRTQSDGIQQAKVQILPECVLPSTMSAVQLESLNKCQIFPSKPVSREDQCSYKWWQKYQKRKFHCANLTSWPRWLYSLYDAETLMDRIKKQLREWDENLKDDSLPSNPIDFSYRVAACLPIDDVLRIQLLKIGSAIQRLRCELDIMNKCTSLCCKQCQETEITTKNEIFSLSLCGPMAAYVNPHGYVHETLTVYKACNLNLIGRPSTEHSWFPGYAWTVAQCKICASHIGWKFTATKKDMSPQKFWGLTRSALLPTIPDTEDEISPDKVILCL

[2] = molecular target: T1, Protein cereblon/Tyrosine-protein phosphatase non-receptor type 1; assay: PROTAC activity at PTP1B/CRBN in insulin treated human HepG2 cells assessed as protein degradation at 50 nM incubated for 48 hrs by Western blot analysis relative to control
Target sequence in this assay (P18031 whole entry, looked up): as the sequence (P18031 whole entry, looked up) above
Target sequence in this assay (Q96SW2 whole entry, looked up): as the sequence (Q96SW2 whole entry, looked up) above

[3] = molecular target: T1, Protein cereblon/Tyrosine-protein phosphatase non-receptor type 1; assay: PROTAC activity at PTP1B/CRBN in insulin treated human HepG2 cells assessed as protein degradation at 500 nM incubated for 48 hrs by Western blot analysis relative to control
Target sequence in this assay (P18031 whole entry, looked up): as the sequence (P18031 whole entry, looked up) above
Target sequence in this assay (Q96SW2 whole entry, looked up): as the sequence (Q96SW2 whole entry, looked up) above

[4] = molecular target: T1, Protein cereblon/Tyrosine-protein phosphatase non-receptor type 1; assay: PROTAC activity at PTP1B/CRBN in insulin treated human HepG2 cells assessed as protein degradation at 5000 nM incubated for 48 hrs by Western blot analysis relative to control
Target sequence in this assay (P18031 whole entry, looked up): as the sequence (P18031 whole entry, looked up) above
Target sequence in this assay (Q96SW2 whole entry, looked up): as the sequence (Q96SW2 whole entry, looked up) above

[5] = molecular target: T1, Protein cereblon/Tyrosine-protein phosphatase non-receptor type 1; assay: PROTAC activity at PTP1B/CRBN in insulin treated human HepG2 cells assessed as protein degradation incubated for 48 hrs by Western blot analysis
[6] = molecular target: T1, Protein cereblon/Tyrosine-protein phosphatase non-receptor type 1; assay: PROTAC activity at PTP1B/CRBN in insulin treated human HepG2 cells assessed as protein degradation incubated for 72 hrs by Western blot analysis
[7] = molecular target: T1, Protein cereblon/Tyrosine-protein phosphatase non-receptor type 1; assay: PROTAC activity at PTP1B/CRBN in insulin treated human HepG2 cells assessed as protein degradation at 1 nM incubated for 48 hrs by Western blot analysis relative to control
Target sequence in this assay (P18031 whole entry, looked up): as the sequence (P18031 whole entry, looked up) above
Target sequence in this assay (Q96SW2 whole entry, looked up): as the sequence (Q96SW2 whole entry, looked up) above

[8] = molecular target: T1, Protein cereblon/Tyrosine-protein phosphatase non-receptor type 1; assay: PROTAC activity at PTP1B/CRBN in insulin treated human HepG2 cells assessed as protein degradation at 1 nM incubated for 72 hrs by Western blot analysis relative to control
Target sequence in this assay (P18031 whole entry, looked up): as the sequence (P18031 whole entry, looked up) above
Target sequence in this assay (Q96SW2 whole entry, looked up): as the sequence (Q96SW2 whole entry, looked up) above

[9] = molecular target: T1, Protein cereblon/Tyrosine-protein phosphatase non-receptor type 1; assay: PROTAC activity at PTP1B/CRBN in insulin treated human HepG2 cells assessed as protein degradation at 5 nM incubated for 72 hrs by Western blot analysis relative to control
[10] = molecular target: T1, Protein cereblon/Tyrosine-protein phosphatase non-receptor type 1; assay: PROTAC activity at PTP1B/CRBN in insulin treated human HepG2 cells assessed as protein degradation at 25 nM incubated for 48 hrs by Western blot analysis relative to control
[11] = molecular target: T1, Protein cereblon/Tyrosine-protein phosphatase non-receptor type 1; assay: PROTAC activity at PTP1B/CRBN in insulin treated human HepG2 cells assessed as protein degradation at 25 nM incubated for 72 hrs by Western blot analysis relative to control
[12] = molecular target: T1, Protein cereblon/Tyrosine-protein phosphatase non-receptor type 1; assay: PROTAC activity at PTP1B/CRBN in insulin treated human HepG2 cells assessed as protein degradation at 125 nM incubated for 48 hrs by Western blot analysis relative to control
[13] = molecular target: T1, Protein cereblon/Tyrosine-protein phosphatase non-receptor type 1; assay: PROTAC activity at PTP1B/CRBN in insulin treated human HepG2 cells assessed as protein degradation at 125 nM incubated for 72 hrs by Western blot analysis relative to control
[14] = molecular target: T1, Protein cereblon/Tyrosine-protein phosphatase non-receptor type 1; assay: PROTAC activity at PTP1B/CRBN in insulin treated human HepG2 cells assessed as protein degradation at 625 nM incubated for 48 hrs by Western blot analysis relative to control
[15] = molecular target: T1, Protein cereblon/Tyrosine-protein phosphatase non-receptor type 1; assay: PROTAC activity at PTP1B/CRBN in insulin treated human HepG2 cells assessed as protein degradation at 625 nM incubated for 72 hrs by Western blot analysis relative to control
[16] = molecular target: T1, Protein cereblon/Tyrosine-protein phosphatase non-receptor type 1; assay: PROTAC activity at PTP1B/CRBN in insulin treated human HepG2 cells assessed as protein degradation at 1250 nM incubated for 48 hrs by Western blot analysis relative to control
[17] = molecular target: T1, Protein cereblon/Tyrosine-protein phosphatase non-receptor type 1; assay: PROTAC activity at PTP1B/CRBN in insulin treated human HepG2 cells assessed as protein degradation at 1250 nM incubated for 72 hrs by Western blot analysis relative to control

SMILES	Activity [1] [%]	Activity [2] [%]	Activity [3] [%]	Activity [4] [%]	other results
O=C1CCC(N2C(=O)c3cccc(NC(=O)COCCOCCOCCOCCCCCCNC(=O)c4cccc(NC(=O)CSc5nc6ccccc6[nH]5)c4)c3C2=O)C(=O)N1 (stereo not drawn)	26	70	44	15	
O=C1CCC(N2C(=O)c3cccc(NC(=O)COCCOCCCCCCNC(=O)c4cccc(NC(=O)CSc5nc6ccccc6[nH]5)c4)c3C2=O)C(=O)N1 (stereo not drawn)	24	69	43	< 5	
O=C1CCC(N2C(=O)c3cccc(NC(=O)CCCCCOCCOCCCCCCNC(=O)c4cccc(NC(=O)CSc5nc6ccccc6[nH]5)c4)c3C2=O)C(=O)N1 (stereo not drawn)	< 5	17	13	10	
O=C1CCC(N2C(=O)c3cccc(NC(=O)COCCOCCOCCCCCCNC(=O)c4cccc(NC(=O)CSc5nc6ccccc6[nH]5)c4)c3C2=O)C(=O)N1 (stereo not drawn)	71	38	13	< 5	
O=C1CCC(N2C(=O)c3cccc(NC(=O)CCCCCCCCCCNC(=O)c4cccc(NC(=O)CSc5nc6ccccc6[nH]5)c4)c3C2=O)C(=O)N1 (stereo not drawn)	32	9	19	< 5	
O=C1CCC(N2C(=O)c3cccc(NC(=O)CCCCCOCCOCCOCCOCCCCCCNC(=O)c4cccc(NC(=O)CSc5nc6ccccc6[nH]5)c4)c3C2=O)C(=O)N1 (stereo not drawn)	32	17	< 5	< 5	
C[C@H]1[C@H](C)CC[C@]2(C(=O)NCCCCCCOCCOCCOCCCCCC(=O)Nc3cccc4c3C(=O)N(C3CCC(=O)NC3=O)C4=O)CC[C@]3(C)C(=CC[C@@H]4[C@@]5(C)CC[C@H](O)C(C)(C)[C@@H]5CC[C@]43C)[C@H]12 (stereo partly drawn)	16	< 5	6	17	
C[C@H]1[C@H](C)CC[C@]2(C(=O)NCCCCCCOCCOCCCCCC(=O)Nc3cccc4c3C(=O)N(C3CCC(=O)NC3=O)C4=O)CC[C@]3(C)C(=CC[C@@H]4[C@@]5(C)CC[C@H](O)C(C)(C)[C@@H]5CC[C@]43C)[C@H]12 (stereo partly drawn)	18	47	29	5	
C[C@H]1[C@H](C)CC[C@]2(C(=O)NCCCCCCNc3cccc4c3C(=O)N(C3CCC(=O)NC3=O)C4=O)CC[C@]3(C)C(=CC[C@@H]4[C@@]5(C)CC[C@H](O)C(C)(C)[C@@H]5CC[C@]43C)[C@H]12 (stereo partly drawn)	11	67	23	14	
O=C1CCC(N2C(=O)c3cccc(NC(=O)CCCCCOCCOCCOCCCCCCNC(=O)c4cccc(NC(=O)CSc5nc6ccccc6[nH]5)c4)c3C2=O)C(=O)N1 (stereo not drawn)	8	32	< 5	30	
C[C@H]1[C@H](C)CC[C@]2(C(=O)NCCCCCCOCCOCCOCCOCCCCCC(=O)Nc3cccc4c3C(=O)N(C3CCC(=O)NC3=O)C4=O)CC[C@]3(C)C(=CC[C@@H]4[C@@]5(C)CC[C@H](O)C(C)(C)[C@@H]5CC[C@]43C)[C@H]12 (stereo partly drawn)	< 5	< 5	12	42	
C[C@H]1[C@H](C)CC[C@]2(C(=O)NCCCOCCCCOCCCNc3cccc4c3C(=O)N(C3CCC(=O)NC3=O)C4=O)CC[C@]3(C)C(=CC[C@@H]4[C@@]5(C)CC[C@H](O)C(C)(C)C5CC[C@]43C)[C@H]12 (stereo partly drawn)	36	65	54	46	

Now from value to molecule, other results behind:

Activity [1] [%]	Activity [2] [%]	Activity [3] [%]	Activity [4] [%]	SMILES	other results
24	51	6	32	CC1(C)CC[C@]2(C(=O)NCCCCCCOCCOCCOCCOCC(=O)Nc3cccc4c3C(=O)N(C3CCC(=O)NC3=O)C4=O)CC[C@]3(C)C(=CC[C@@H]4[C@@]5(C)CC[C@H](O)C(C)(C)[C@@H]5CC[C@]43C)[C@@H]2C1 (stereo partly drawn)	
8	16	< 5	22	CC1(C)CC[C@]2(C(=O)NCCCCCCOCCOCCOCCCCCC(=O)Nc3cccc4c3C(=O)N(C3CCC(=O)NC3=O)C4=O)CC[C@]3(C)C(=CC[C@@H]4[C@@]5(C)CC[C@H](O)C(C)(C)[C@@H]5CC[C@]43C)[C@@H]2C1 (stereo partly drawn)	
57	51	26	< 5	CC1(C)CC[C@]2(C(=O)NCCCCCCOCCOCC(=O)Nc3cccc4c3C(=O)N(C3CCC(=O)NC3=O)C4=O)CC[C@]3(C)C(=CC[C@@H]4[C@@]5(C)CC[C@H](O)C(C)(C)[C@@H]5CC[C@]43C)[C@@H]2C1 (stereo partly drawn)	
84	56	38	< 5	CC1(C)CC[C@]2(C(=O)NCCCCCCOCCOCCOCC(=O)Nc3cccc4c3C(=O)N(C3CCC(=O)NC3=O)C4=O)CC[C@]3(C)C(=CC[C@@H]4[C@@]5(C)CC[C@H](O)C(C)(C)[C@@H]5CC[C@]43C)[C@@H]2C1 (stereo partly drawn)	
< 5	41	33	19	C[C@H]1[C@H](C)CC[C@]2(C(=O)NCCCCCCOCCOCCOCCOCC(=O)Nc3cccc4c3C(=O)N(C3CCC(=O)NC3=O)C4=O)CC[C@]3(C)C(=CC[C@@H]4[C@@]5(C)CC[C@H](O)C(C)(C)[C@@H]5CC[C@]43C)[C@H]12 (stereo partly drawn)	Activity [5]: Dose-Dependent Effect; DC50 [5]: 200 nM; Activity [6]: Dose-Dependent Effect; DC50 [6]: 310 nM; Activity [7]: 37%; Activity [8]: 30%; Activity [9]: 36%; Activity [10]: 23%; Activity [11]: 48%; Activity [12]: 61%; Activity [13]: 32%; Activity [14]: 68%; Activity [15]: 28%; Activity [16]: 35%; Activity [17]: 61%
46	60	< 5	< 5	C[C@H]1[C@H](C)CC[C@]2(C(=O)NCCCCCCOCCOCC(=O)Nc3cccc4c3C(=O)N(C3CCC(=O)NC3=O)C4=O)CC[C@]3(C)C(=CC[C@@H]4[C@@]5(C)CC[C@H](O)C(C)(C)[C@@H]5CC[C@]43C)[C@H]12 (stereo partly drawn)	
38	61	53	31	CC1(C)CC[C@]2(C(=O)NCCCOCCOCCOCCCNc3cccc4c3C(=O)N(C3CCC(=O)NC3=O)C4=O)CC[C@]3(C)C(=CC[C@@H]4[C@@]5(C)CC[C@H](O)C(C)(C)[C@@H]5CC[C@]43C)[C@@H]2C1 (stereo partly drawn)	Activity [5]: Dose-Dependent Effect; DC50 [5]: 540 nM; Activity [6]: Dose-Dependent Effect; DC50 [6]: 3640 nM; Activity [7]: 24%; Activity [8]: < 5%; Activity [9]: 23%; Activity [10]: < 5%; Activity [11]: 58%; Activity [12]: 36%; Activity [13]: 41%; Activity [14]: 51%; Activity [15]: 25%; Activity [16]: 78%; Activity [17]: 24%
38	44	43	29	CC1(C)CC[C@]2(C(=O)NCCCCCCNc3cccc4c3C(=O)N(C3CCC(=O)NC3=O)C4=O)CC[C@]3(C)C(=CC[C@@H]4[C@@]5(C)CC[C@H](O)C(C)(C)[C@@H]5CC[C@]43C)[C@@H]2C1 (stereo partly drawn)	
45	33	36	< 5	CC1(C)CC[C@]2(C(=O)NCCCCCCOCCOCCCCCC(=O)Nc3cccc4c3C(=O)N(C3CCC(=O)NC3=O)C4=O)CC[C@]3(C)C(=CC[C@@H]4[C@@]5(C)CC[C@H](O)C(C)(C)[C@@H]5CC[C@]43C)[C@@H]2C1 (stereo partly drawn)	
17	75	55	58	CC1(C)CC[C@]2(C(=O)NCCCOCCCCOCCCNc3cccc4c3C(=O)N(C3CCC(=O)NC3=O)C4=O)CC[C@]3(C)C(=CC[C@@H]4[C@@]5(C)CC[C@H](O)C(C)(C)[C@@H]5CC[C@]43C)[C@@H]2C1 (stereo partly drawn)	Activity [5]: Dose-Dependent Effect; DC50 [5]: 770 nM; Activity [6]: Dose-Dependent Effect; DC50 [6]: 200 nM; Activity [7]: 33%; Activity [8]: 5%; Activity [9]: 54%; Activity [10]: < 5%; Activity [11]: 66%; Activity [12]: 8%; Activity [13]: 43%; Activity [14]: 45%; Activity [15]: 47%; Activity [16]: 62%; Activity [17]: 53%
